Measured values published in patent US8524890B2, “Water-soluble phthalocyanine dye” (National Institute for Materials Science, priority 2009, dated 2013).

Legend:
Assay type in all cases: physicochemical
[1] = Solubility and aggregation in pure water
[2] = Solubility and aggregation in aqueous Triton-X100 solution (optical absorption spectra, FIG. 8, FIG. 9)
[3] = Solubility and aggregation in mixed water/ethanol solvent (optical absorption spectra, FIG. 7)

Substance: [Sb(tbpc)(SO4)(HSO4)].4H2O [Compound 2]
- aggregation in pure water [1]: strong aggregation
- concentration up to which the dye remains disaggregated ([2]; Triton-X100 2% (w/v), absorbance at around 730 nm (FIG. 9)): 20 µM
- aggregation state above certain concentration of the surfactant ([2]; aqueous Triton-X100, above certain surfactant concentration (FIG. 8)): remains dissolved in a disaggregated form
- solubility in the presence of Triton-X100 ([2]; aqueous, Triton-X100 present): grows high
- aggregation state ([3]; 10% (v/v) ethanol): substantially aggregated form
- aggregation state ([3]; 30% (v/v) ethanol): a peak ascribable to disaggregated species is clearly observed
- aggregation state ([3]; 50% ethanol): contribution of aggregated species is negligible
- water solubility on addition of alcohol ([3]; alcohol added): greatly improved
